Where “and” joins values, the source holds several entries; their conditions need not be identical. Equal entries are not always repeated.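 Exposure lasted 48 hours, with cells grown in 96-well plates and compounds tested at five concentrations. The concentration for 50% growth inhibition is given as GI50. TGI marks complete inhibition of growth.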
Assays:
Experiment in all cases: NCI anticancer screen, dose series, 48 h
HCT-116 colon = test system: HCT-116 colon
HL-60(TB) leukemia = test system: HL-60(TB) leukemia
HOP-92 NSCLC = test system: HOP-92 NSCLC
IGROV1 ovarian = test system: IGROV1 ovarian
KM12 colon = test system: KM12 colon
NCI-H23 lung = test system: NCI-H23 lung
SF-295 CNS = test system: SF-295 CNS
TK-10 renal = test system: TK-10 renal
CAKI-1 renal = test system: CAKI-1 renal
COLO 205 colon = test system: COLO 205 colon
HCC-2998 colon = test system: HCC-2998 colon
NCI/ADR-RES ovarian = test system: NCI/ADR-RES ovarian
RPMI-8226 leukemia = test system: RPMI-8226 leukemia

| Structure (SMILES) | TGI (HCT-116 colon) [µM] | TGI (HL-60(TB) leukemia) [µM] | TGI (HOP-92 NSCLC) [µM] | TGI (IGROV1 ovarian) [µM] | TGI (KM12 colon) [µM] | TGI (NCI-H23 lung) | TGI (SF-295 CNS) [µM] | TGI (TK-10 renal) [µM] | TGI (CAKI-1 renal) [µM] | TGI (COLO 205 colon) | TGI (HCC-2998 colon) [µM] | TGI (NCI/ADR-RES ovarian) [µM] | TGI (RPMI-8226 leukemia) [µM] | GI50 (KM12 colon) | GI50 (NCI-H23 lung) | GI50 (NCI/ADR-RES ovarian) [µM] |
| --- | --- | --- | --- | --- | --- | --- | --- | --- | --- | --- | --- | --- | --- | --- | --- | --- |
| [N-]=[N+]=CC(=O)CCC(=O)N(c1ccccc1)c1ccccc1 | > 10 | > 10 | > 10 | > 10 | > 10 | > 10 µM | > 10 | > 10 |  |  |  |  |  |  |  |  |
| CCCNC(=O)N(C)C(=O)N1N=C(c2ccccc2)C1c1ccccc1 (stereo not given) | > 100 |  | > 100 | > 100 | > 100 | > 100 µM | > 100 | > 100 | > 100 | > 100 µM | > 100 | > 100 | > 100 |  |  |  |
| CC(C)[C@@H](C)[C@@]1(C)C[C@@H]1[C@@H](C)[C@H]1CC[C@@H]([C@@H]2CC=C3C[C@@H](O)CC[C@]3(C)C2=O)[C@]1(C)CCO | 21.6 | 5.2 |  | 29.8 | 13 | 27.2 µM | 21.2 | 23.6 | 25.4 | 24.3 µM | 16.4 | 26.6 | 52 |  |  |  |
| Cc1nnc(Sc2nc(C#N)c(C#N)nc2Sc2nnc(C)s2)s1 | > 64.3 | 8.83 | 7.65 | 21.3 | > 72 | 49.8 µM | 73.8 | 41.4 |  | > 53.3 µM | 51.8 | 51 |  |  |  |  |
| CC1(C)OC(=O)C(Cc2ccccc2)(Cc2ccccc2)C(=O)O1 | > 100 | > 100 |  | > 100 | > 100 | > 100 µM | > 100 | > 100 | > 100 | > 100 µM | > 100 | > 100 |  |  |  |  |
| CC(=O)OCC1OC(n2nc(Cc3ccccc3)c(=S)[nH]c2=S)C(OC(C)=O)C(OC(C)=O)C1OC(C)=O (stereo not given) | 47.1 | 27.2 | 40.6 | 45.7 | 40.2 | 44.6 µM | > 100 | > 100 | > 100 | > 100 µM |  | > 100 |  |  |  |  |
| COC(=O)C1=C(CCC[C@H](C)O[Si](C)(C)C(C)(C)C)NC(=O)N2[C@@H](CCO)CC[C@H]12 | 20 |  | 28.4 | 31.8 | 51.2 | 27.2 µM | 25.1 | 35 | 37.9 | 34 µM |  | 29.1 | 53.6 |  |  |  |
| CCCCCCCCC/C=C1/CC(CO)(COC(=O)c2ccccc2)OC1=O (stereo not given) | 56.2 |  | 14.4 | 29.6 | 30.6 | 28.3 µM | 21.9 | 22.7 | 24.8 | 11.8 µM | 27.8 | 28.8 |  |  |  |  |
| Cn1c(N=P(c2ccccc2)(c2ccccc2)c2ccccc2)c([N+](=O)[O-])c(=O)n(C)c1=O | > 100 |  | > 100 | > 100 | 80.4 | > 100 µM | > 100 | > 100 | > 100 | > 100 µM | > 100 | > 100 | > 100 |  |  |  |
| COc1ccc(/C(=N\Nc2ccccn2)c2ccccn2)cc1 | 17.4 | 18.4 | > 24.3 | 7.89 | > 32.3 | 9.55 µM | 3.54 |  | 22.6 | 12.1 µM | 35.9 | 0.0475 | 3.85 |  |  |  |
| CCCCOC(=O)c1cc(C(=CCC[C@H]2CC[C@@]3(C)[C@@H](CC[C@@H]4[C@@H]3CC[C@]3(C)[C@@H](C(C)CCCC(C)C)CC[C@@H]43)C2)c2cc(Cl)c(O)c(C(=O)OCCCC)c2)cc(Cl)c1O (stereo not given in full) | > 50 | > 50 | > 50 | > 50 | > 50 | > 50 µM |  |  | > 50 | > 50 µM | > 50 | > 50 | > 50 |  |  |  |
| O=P(O)(CN1CCN(CP(=O)(O)c2ccccc2)CCN(CP(=O)(O)c2ccccc2)CC1)c1ccccc1 | > 100 | > 100 |  | > 100 | > 100 | > 100 µM | > 100 | > 100 | > 100 | > 100 µM | > 100 | > 100 | > 100 |  |  |  |
| CN(CCCn1ccnc1[N+](=O)[O-])CCCn1ccnc1[N+](=O)[O-] | > 100 | > 100 |  | > 100 | > 100 | > 100 µM | > 100 | > 100 | > 100 | > 100 µM |  | > 100 | > 100 |  |  |  |
| CC(=O)/C(C=Nc1c(C)n(C)n(C)c1=O)=C(/O)c1ccccc1 | > 50 | > 50 | > 50 | > 50 |  | > 50 µM | > 50 | > 50 | > 50 | > 50 µM | > 50 |  | > 50 |  |  |  |
| C1CN2CCNCCN(CCN1)CC2 | > 100 | > 100 | > 100 | > 100 | > 100 | > 100 µM | > 100 | > 100 | > 100 | > 100 µM |  | > 100 | > 100 |  |  |  |
| COC(=O)C1=NN2c3ccccc3CN([C@@H](C)c3ccccc3)C(=O)[C@@H]2[C@H]1c1ccccc1 | > 100 | > 100 | > 100 |  | > 100 | > 100 µM | > 100 | > 100 | > 100 | > 100 µM | > 100 | > 100 |  |  |  |  |
| S=C(N1CCN(c2ccccc2)CC1)N1CCN(c2ccccc2)CC1 | > 100 |  |  | > 100 | > 100 | > 100 µM | > 100 | > 100 | > 100 | > 100 µM | > 100 | > 100 | > 100 |  |  |  |
| CC1=CCC2CC1NC(=O)CCOCCC(=O)NC2(C)C (stereo not given) | > 100 |  | > 100 |  | > 100 | > 100 µM | > 100 | > 100 | > 100 | > 100 µM | > 100 | > 100 | > 100 |  |  |  |
| COc1cc2c[n+](C)c3c4cc(OC)c(OC)cc4ccc3c2cc1OC | > 100 |  |  | 97.7 | > 100 | > 100 µM and 77 µM | > 100 | > 100 | > 100 | 42.8 µM and 39.9 µM | > 100 | > 100 | > 100 | > 100 µM and 33.3 µM | 40.8 µM and 19.5 µM | > 100 |
